# Columns and labels:
# [1] = test system: PGC-1α; assay: PGC-1α mRNA expression by qRT-PCR in C2C12 cells; assay type: cell-based, mouse; conditions: differentiating C2C12, qRT-PCR, normalized to 18s rRNA, vs control
# Protocol: (§1) Cells were seeded into the cell culture medium (GM), and cultured for 24 hours. Thereafter, the differentiation medium (DM) was treated with DMSO and inotodiol (0.1, 0.5, 1.0, and 10 μM) at different concentrations, and differentiation was induced for 2 to 3 days.
# The C2C12 cells whose differentiation was induced in Example 1 were lysed using an Easy-spin Total RNA Extraction kit, and chloroform was added thereto. Then, the C2C12 cells were centrifuged. After the supernatant was separated, the same volume of isopropanol was added and bound to the cells. After centrifugation, the cells were washed with 70% EtOH mixed with DEPC water, and the concentration of RNA was quantified by adding 20 to 50 μL of a DEPC solution. RNA was reverse-transcribed using a PrimeScript cDNA synthesis kit to synthesize cDNA. Then, the gene expression was analyzed by qRT-PCR in a real-time PCR system using SYBR Premix EX Taq. Fold changes in gene expression were normalized against the expression of ribosomal gene 18s rRNA.
# [2] = test system: C2C12 cells; assay: Myoblast differentiation of C2C12 cells (MHC immunostaining and immunoblot); assay type: cell-based, mouse
# Protocol: The C2C12 cells were cultured in a general cell culture medium and a differentiation medium, respectively. DMEM supplemented with 15% fetal bovine serum was used as the normal cell culture medium (i.e., a growth medium (GM)), and DMEM supplemented with 2% horse serum was used as the differentiation medium (DM).
# The C2C12 cells whose differentiation was induced in Example 1 were washed with 1× PBS, and then fixed with 3.7% paraformaldehyde at room temperature. Thereafter, a permeabilization buffer was added thereto, and reacted at room temperature. Unspecific antibody binding was inhibited by reacting with PBST (a blocking buffer) containing 3% BSA and PBS containing 0.1% Tween 20. A primary antibody against a myosin heavy chain (MHC) was diluted 1:500 in a blocking buffer, added, and reacted at room temperature. A secondary antibody diluted 1:5000 in a blocking buffer was added, and reacted at room temperature.
# The C2C12 cells whose differentiation was induced in Example 1 were collected, lysed by adding a lysis buffer (20 mM Tris-HCl, pH 8.0, 150 mM NaCl, 1% Triton X, a proteinase inhibitor), and then the cell lysis sample was quantified. Thereafter, the same amount of protein was subjected to SDS-PAGE electrophoresis, and transferred to a PVDF membrane. […]
# [3] = test system: muscle fibrosis; assay: Muscle fibrosis in CTX muscle damage mouse model; assay type: in vivo; conditions: then inotodiol
# [4] = test system: ATPSA, MTCO1, and NDUF88; assay: Mitochondrial activity markers (T-OxPHOS immunoblotting) in C2C12 myoblasts; assay type: cell-based, mouse; conditions: inotodiol at each concentration
# Protocol: as §1
# To induce the differentiation of C2C12 myoblasts in the same manner as in Example 1 and check mitochondrial activity, the expression characteristics of a T-OxPHOS antibody mixed with ATPSA, MTCO1, and NDUF88 were confirmed through immunoblotting. For each of the proteins included in the T-OxPHOS antibody, ATPSA is a constituent protein of ATP synthase that contributes to the ATP synthesis in mitochondria, MTCO1 is associated with the oxidase activity of cytochrome-c, which is a component of the electron transport system in the inner membrane of mitochondria, and NDUF 88 encodes a subunit of NADH:ubiquinone oxidoreductase (Complex 1), which is the first enzyme complex in the mitochondrial electron transport system.
# [5] = test system: mouse model in which muscle damage is induced by CTX; conditions: CTX mice
# Protocol: Ten 5-month-old C57BL/6 male mice were used as experimental animals.
# However, each of the weights of the hindlimb muscle tissues, such as the tibialis anterior muscle (TA), extensor digitorum longus muscle (EDL), soleus muscle (Sol), and gastrocnemius muscle (Gas), of the experimental animals was measured.
# Hematoxylin & eosin staining (H&E staining) was performed using the TA muscle isolated from the tissue of each of the experimental animals. Frozen sections fixed with 4% paraformaldehyde were stained with hematoxylin and stained with eosin for contrast staining, mounted, and observed under an optical microscope.
# The relative mRNA expression levels were compared for each muscle type of Myh7 (MHCI), Myh2 (MHCIIa), Myh4 (MHCIIb), and Myh1 (MHCIIx).
# [6] = test system: mouse model in which myoatrophy is induced by DEX; assay: Myotube atrophy in myoatrophy-induced (DEX) mouse model; assay type: in vivo; conditions: DEX (dexamethasone 20 mg/kg) model
# Protocol: Experimental animals were grouped into 10 animals having a similar body weight, and dexamethasone was administered at a dose of 20 mg/kg to one group to induce […].
# For the myoatrophy mouse model of Example 3, the effects of alleviating and recovering myotube atrophy were determined when inotodiol was administered.
# [7] = test system: PGC-1α promoter; assay: PGC-1α reporter (luciferase) assay; assay type: cell-based, mouse
# Protocol: Immediately after cells were seeded at a density of 1×10^4 cells/well in a 96-well culture plate, the cells were transfected by treating the cells with PGC-1α (DNA) and a plasmid at a ratio of [150 ng/10 μL]+[0.3 μL/10 μL] per well. […] After 24 hours of drug treatment, the cells were lysed in 30 μL of a passive lysis buffer (Promega) per well, and the dissolved cell solution was transferred to a plate for luminometer reading. Then, an equal amount of luciferin, which is a substrate of luciferase, was subjected to an enzymatic reaction to determine the degree of luminescence. The measured values were standardized for each well and plate, and expressed as a relative ratio using the measured values in the wells treated with DMSO, which is a solvent of the compound, as the control. The expression level of luciferase in the PGC-1α reporter cell line depends on the stimulation received by a PGC-1α promoter. That is, if the compound is a PGC-1α expression inducer, it stimulates the PGC-1a promoter to increase the expression of luciferase, and if the compound is a PGC-1α expression inhibitor, luciferase expression decreases.
# [8] = test system: muscle stem cells; assay: Muscle stem cell proliferation (BrdU analysis) after CTX muscle damage; assay type: in vivo, mouse
# Protocol: To induce muscle damage, CTX was injected into the mice to which inotodiol was administered once a day for 7 days. Then, it was determined through BrdU analysis whether or not the proliferation of muscle stem cells was enhanced (FIG. 10).
# [9] = test system: high-fat diet mice; assay: Exercise capacity in high-fat diet mouse model (treadmill, grip test); assay type: in vivo; conditions: high-fat diet-fed mice
# Protocol: When inotodiol was administered to high-fat diet mice, the effects on muscle strength and exercise performance ability were determined. After inotodiol was administered to a high-fat diet-fed mouse model, the exercise duration and movement distance were measured through a treadmill experiment. […] As a result of the grip test, it was also confirmed that the high-fat diet mouse model had lower muscle strength than the mean muscle strength.
# [10] = test system: normal mice; assay: Long-term (2 months) inotodiol administration to normal mice; assay type: in vivo, mouse
# Protocol: For normal mice in which the muscle damage or muscle atrophy was not induced, an experiment was conducted to determine whether there was an effect of increasing muscle mass and muscle strength when inotodiol was administered. For the mice to which inotodiol was administered for 2 months, an experiment was conducted to measure a change in muscle mass and muscle strength of hindlimb muscles after the administration of inotodiol (a grip test).
# [11] = 300 μg/kg oral, 21 days after CTX
# [12] = inotodiol once a day for 7 days, then CTX
# [13] = 2 months administration, vs control
compound,measurement,setting,value
CC(C)=CC[C@@H](O)[C@@H](C)[C@H]1CC[C@@]2(C)C3=C(CC[C@]12C)[C@@]1(C)CC[C@H](O)C(C)(C)C1CC3 (some centres unmarked) [inotodiol],mRNA expression for PGC-1α,[1],significantly increased compared to the control
same,formation of multinucleated myotubes,"[2]; C2C12, inotodiol 0.1, 0.5, 1.0, 10 μM, immunostaining on day 2 of differentiation",increased in a concentration-dependent manner
same,expression level of MHC (differentiation marker),"[2]; C2C12, inotodiol at different concentrations, immunoblot, vs DMSO-treated control",increased in a concentration-dependent manner
same,area of the muscle tissue in which fibrosis progressed,[3],reduced
same,muscle fibrosis in muscle tissue,[3],fibrosis was ameliorated
same,"expression level of mitochondrial proteins (ATPSA, MTCO1, NDUF88)",[4],increased in proportion to the concentration of inotodiol
same,"increase in muscle mass, extensor digitorum longus muscle (EDL), vs control",[5]; [11],18.9%
same,"increase in muscle mass, gastrocnemius muscle (Gas), vs control",[5]; [11],9.5%
same,"increase in muscle mass, soleus muscle (Sol), vs control",[5]; [11],5.2%
same,"increase in muscle mass, tibialis anterior muscle (TA), vs control",[5]; [11],16.0%
same,expression of Myh2 (MHCIIa),[5]; 21 days after muscle damage,tended to greatly increase
same,"relative mRNA expression levels of muscle fiber types Myh7, Myh2, Myh4, Myh1",[5]; 21 days after muscle damage,no significant difference
same,blood glucose,"[5]; day 21 after induction of muscle damage, vs control",blood glucose-lowering effect was confirmed
same,increase in grip strength vs control,"[5]; day 21 after muscle damage, grip strength test",approximately 6.8%
same,change in body weight,"[5]; inotodiol 300 μg/kg oral, 21 days after CTX",no change in body weight was observed
same,increase in muscle fiber cross-sectional area (CSA) of TA muscle vs control,[5]; laminin staining,89.4%
same,muscle regeneration (H&E staining of TA muscle),[5]; vs control,significant muscle regeneration effect
same,cross-sectional area of myotubes,[6],restored to the same level as that of the normal group
same,size of muscles and muscle fibers,[6],increased
same,luciferase activity for PGC-1α,"[7]; inotodiol 0.1, 0.5, 1.0 μM, 24 h, relative to DMSO",increased in an inotodiol concentration-dependent manner
same,luciferase activity for PGC-1α compared with positive control,[7]; vs 0.5 mM AICAR positive control,higher than that of 0.5 mM AICAR
same,expression of genes involved in muscle growth,[8]; CTX muscle damage,effect of enhancing the expression of genes involved in muscle growth was confirmed
same,relative mRNA expression levels of genes involved in the cell cycle,[8]; CTX muscle damage,increased
same,expression level of BrdU in muscle tissues,[8]; [12],increased
same,expression levels of Pax7 and Ki67 and expression ratio of Ki67 to Pax7,[8]; [12],increased
same,"exercise capacity (exercise duration and movement distance, treadmill)",[9],recovered exercise capacity to the level of the normal control
same,muscle strength (grip test),[9],muscle strength was improved
same,hindlimb muscle mass,[10]; [13],increased
same,muscle strength (grip test),[10]; [13],also increased
same,weight of fat relative to weight gain,[10]; long-term administration,increased relatively less
same,weight-to-muscle ratio,[10]; long-term administration,higher than that of the non-administered group
same,expression levels of PGC-1α and mitochondrial-related genes in muscle,"[10]; long-term administration, vs control",increased compared to the control
